Drawing on PubChem BioAssay (NCI), this text covers GI50 and TGI for 9 compounds.

Where “and” joins values, the source holds several entries; their conditions need not be identical. Equal entries are not always repeated.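 Briefly, cells in 96-well plates were exposed to five compound concentrations for 48 h, and endpoints were estimated by linear interpolation. GI50 marks 50% less growth. At the TGI there is no net growth.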 Some results are limits rather than exact numbers.

Test systems include CCRF-CEM leukemia; HCT-116 colon; HT29 colon; KM12 colon; LOX IMVI melanoma; M14 melanoma; OVCAR-5 ovarian; RPMI-8226 leukemia; RXF 393 renal; SK-OV-3 ovarian.
Holding throughout (assay): inhibition of tumour cell growth, NCI panel, 48 h

As to `CS(=O)(=O)CCNCc1ccc(-c2ccc3ncnc(Nc4ccc(OCc5ccccc5)c(Cl)c4)c3c2)o1`, the GI50 in the experiment on CCRF-CEM leukemia was 7.24 µM; in the experiment on HCT-116 colon it was 4.53 µM; in the experiment on HT29 colon it was 3.53 µM; in the experiment with KM12 colon, 6.41 µM; in the experiment with LOX IMVI melanoma it was 4.11 µM; in the experiment with M14 melanoma, 4.82 µM. The GI50 with OVCAR-5 ovarian was 3.61 µM; with RPMI-8226 leukemia it was 5.49 µM; with RXF 393 renal, 1.61 µM; in the experiment on SK-OV-3 ovarian, 0.0416 µM. Further, the TGI in the experiment on CCRF-CEM leukemia is over 21.5 µM; in the experiment with HCT-116 colon, 9.54 µM; in the experiment on HT29 colon, 7.98 µM; in the experiment on KM12 colon, 17.8 µM; with LOX IMVI melanoma it was 8.2 µM; with M14 melanoma, 10 µM. For the same compound, the TGI with OVCAR-5 ovarian is 18.8 µM; in the experiment on RPMI-8226 leukemia, 13.7 µM; in the experiment on RXF 393 renal, 6.33 µM; in the experiment on SK-OV-3 ovarian it was over 8.58 µM.

Regarding `O=C(NNC(=O)c1cc(/C=C/c2cccc([N+](=O)[O-])c2)[nH]c(=S)n1)Nc1ccc(Cl)cc1`, the TGI in the experiment on CCRF-CEM leukemia is 51.2 µM; in the experiment on HCT-116 colon, 60.9 µM; in the experiment on HT29 colon, over 100 µM; in the experiment on KM12 colon, over 100 µM; in the experiment with LOX IMVI melanoma it was 37.3 µM; in the experiment with M14 melanoma, over 100 µM. The TGI in the experiment on OVCAR-5 ovarian is over 100 µM; in the experiment with RPMI-8226 leukemia, 52.9 µM; in the experiment with RXF 393 renal it was over 100 µM; in the experiment with SK-OV-3 ovarian, over 100 µM.

In the case of `CCOC(=O)c1cc2c(n1Cc1ccccc1)-c1oncc1CC2`, the GI50 is 4.92 µM in the experiment with CCRF-CEM leukemia; 3.45 µM in the experiment with HCT-116 colon; 3.23 µM with HT29 colon; 3.49 µM with KM12 colon; 5.5 µM in the experiment with LOX IMVI melanoma; 3.69 µM with M14 melanoma. For the same compound, the GI50 is 16.2 µM with OVCAR-5 ovarian, 4.65 µM in the experiment with RPMI-8226 leukemia, 6.88 µM in the experiment with RXF 393 renal and 7.07 µM in the experiment on SK-OV-3 ovarian. For the same compound, the TGI in the experiment with CCRF-CEM leukemia was over 100 µM; in the experiment with HCT-116 colon it was 13.7 µM; in the experiment with HT29 colon, 14.4 µM; with KM12 colon, 27.6 µM; in the experiment with LOX IMVI melanoma it was 25.4 µM; in the experiment with M14 melanoma, 24.6 µM. Moreover, the TGI in the experiment with OVCAR-5 ovarian is over 100 µM; in the experiment with RPMI-8226 leukemia, 30.2 µM; in the experiment with RXF 393 renal it was 30.9 µM; in the experiment with SK-OV-3 ovarian, 93.1 µM.

As for `COC(OC)[C@@H](C)[C@H](O)[C@](C)(O)C1OC(C)(C)OC(C(C)C=C(C)C)C1C` (stereo partly specified), the TGI in the experiment on CCRF-CEM leukemia, with HCT-116 colon, with HT29 colon, in the experiment on KM12 colon, with LOX IMVI melanoma and in the experiment on M14 melanoma was over 100 µM in each case. In addition, the TGI with OVCAR-5 ovarian, with RPMI-8226 leukemia, in the experiment on RXF 393 renal and with SK-OV-3 ovarian was over 100 µM in each case.

For `O=C(c1ccccc1)c1nc2ccc(C(F)(F)F)cc2[n+]([O-])c1C(F)(F)F`, the GI50 in the experiment on CCRF-CEM leukemia is 27 µM; in the experiment with HCT-116 colon, 31.3 µM; in the experiment on HT29 colon it was 48.6 µM; in the experiment on KM12 colon it was 37.3 µM; in the experiment with LOX IMVI melanoma, 33.6 µM; with M14 melanoma it was 34.5 µM. Further, the GI50 with OVCAR-5 ovarian is 34.6 µM; in the experiment with RPMI-8226 leukemia, 16.4 µM; with RXF 393 renal, 31.8 µM; in the experiment with SK-OV-3 ovarian it was 27.4 µM. Moreover, the TGI with CCRF-CEM leukemia, in the experiment with HCT-116 colon, in the experiment with HT29 colon, with KM12 colon, in the experiment with LOX IMVI melanoma and in the experiment on M14 melanoma was over 100 µM each time. Also, the TGI with OVCAR-5 ovarian, in the experiment with RPMI-8226 leukemia, in the experiment with RXF 393 renal and with SK-OV-3 ovarian was over 100 µM in each case.

Consider `C=C1C(=O)O[C@H]2[C@H]1CC/C(COC(=O)c1ccc(C#N)cc1)=C\CC[C@@]1(C)O[C@@H]21`, for which the GI50 in the experiment with CCRF-CEM leukemia was 0.906 µM; with HCT-116 colon, 1.42 µM; in the experiment on HT29 colon, 1.62 µM; in the experiment with KM12 colon, 3.94 µM; in the experiment with LOX IMVI melanoma, 1.56 µM; in the experiment with M14 melanoma, 1.69 µM. Further, the GI50 with OVCAR-5 ovarian is 3.06 µM; with RPMI-8226 leukemia it was 1.5 µM; with RXF 393 renal it was 1.03 µM; in the experiment on SK-OV-3 ovarian it was 15.8 µM. The TGI with CCRF-CEM leukemia is 6.47 µM; in the experiment on HCT-116 colon it was 2.77 µM; in the experiment on HT29 colon, 4.02 µM; with KM12 colon, 14.8 µM; in the experiment with LOX IMVI melanoma, 2.99 µM; in the experiment on M14 melanoma, 3.64 µM. Also, the TGI with OVCAR-5 ovarian turned out to be 9.51 µM; in the experiment with RPMI-8226 leukemia, 4.61 µM; with RXF 393 renal it was 2.32 µM; with SK-OV-3 ovarian, 29.2 µM.

For `O=[N+]([O-])c1ccc(Sc2c3ccccc3nc3ccccc23)nc1`, the TGI is 5.76 µM in the experiment with CCRF-CEM leukemia; 4.22 µM in the experiment on HCT-116 colon; 8.62 µM in the experiment on HT29 colon; 44.5 µM in the experiment on KM12 colon; 4.97 µM with LOX IMVI melanoma; 10.4 µM in the experiment with M14 melanoma. Further, the TGI stood at 33.2 µM in the experiment with OVCAR-5 ovarian, 5.03 µM in the experiment on RPMI-8226 leukemia, 7.08 µM in the experiment with RXF 393 renal and 17.7 µM in the experiment with SK-OV-3 ovarian.

Turning to `O=C1/C(=C/c2ccccc2)CN(C(=O)OCc2ccccc2)C/C1=C\c1ccccc1`, the TGI was 8.4 µM and 8.56 µM in the experiment on CCRF-CEM leukemia; 1.63 µM and 2.63 µM in the experiment with HCT-116 colon; 6.31 µM and 25.5 µM in the experiment with HT29 colon; 14.8 µM in the experiment with KM12 colon; 2.52 µM and 8.88 µM in the experiment with LOX IMVI melanoma; 16.7 µM with M14 melanoma. Moreover, the TGI with OVCAR-5 ovarian was 30.8 µM; with RPMI-8226 leukemia it was 0.737 µM and 0.647 µM; in the experiment with RXF 393 renal, 19.8 µM; in the experiment with SK-OV-3 ovarian, 40.5 µM. The GI50 with HCT-116 colon was 0.484 µM; in the experiment on HT29 colon, 1.87 µM; in the experiment with KM12 colon, 2.68 µM; in the experiment on LOX IMVI melanoma, 1.21 µM; in the experiment on M14 melanoma, 5.89 µM; in the experiment with RPMI-8226 leukemia, 0.169 µM and 0.2 µM.

Consider `COc1cnc2c(c1)C(=O)c1c-2n(CCCN2CCCC2)c(=O)c2cc(F)ccc12`, for which the GI50 was 0.199 µM with CCRF-CEM leukemia; 0.153 µM in the experiment with HCT-116 colon; 0.209 µM in the experiment on HT29 colon; 0.284 µM in the experiment on KM12 colon; 0.185 µM with LOX IMVI melanoma; 0.392 µM with M14 melanoma. Further, the GI50 in the experiment on OVCAR-5 ovarian is 0.41 µM; in the experiment on RPMI-8226 leukemia, 0.123 µM; in the experiment on RXF 393 renal, 0.36 µM; with SK-OV-3 ovarian, 0.272 µM. Moreover, the TGI worked out at 2.82 µM in the experiment on CCRF-CEM leukemia; 0.663 µM with HCT-116 colon; 1.1 µM with HT29 colon; 4.73 µM in the experiment with KM12 colon; 0.558 µM in the experiment on LOX IMVI melanoma; 1.95 µM in the experiment on M14 melanoma. Also, the TGI stood at 3.23 µM in the experiment with OVCAR-5 ovarian, 0.643 µM in the experiment with RPMI-8226 leukemia, 1.53 µM in the experiment on RXF 393 renal and 0.986 µM with SK-OV-3 ovarian.
